A word on the inhibition: it is the drop in the measured response relative to a control, in per cent.

Common to all, as to settings: Compound concentration 10 µM
In assay [1] the target is 5-hydroxytryptamine receptor 6 (Homo sapiens) (UniProt P50406).
Description: PDSP Primary Binding target: HTR6 - Compounds are tested at 10 uM concentration, plate are incubated at room temperature in the dark for 90 minutes. Reaction are stopped by vacuum filtration onto 0.3% polyethyleneimine soaked filter mats using Filtermate harvester. Scintilation cocktail is then melted onto microwave-dried filters on a hot plate and the radio activity is counted in Microbia counter.
The target in assay [2] is Delta-type opioid receptor (Homo sapiens) (UniProt P41143).
Description: PDSP Primary Binding target: OPRD1 - Compounds are tested at 10 uM concentration, plate are incubated at room temperature in the dark for 90 minutes. Reaction are stopped by vacuum filtration onto 0.3% polyethyleneimine soaked filter mats using Filtermate harvester. Scintilation cocktail is then melted onto microwave-dried filters on a hot plate and the radio activity is counted in Microbia counter.
Assay [3] deals with Kappa-type opioid receptor (Homo sapiens) (UniProt P41145).
Description: PDSP Primary Binding target: OPRK1 - Compounds are tested at 10 uM concentration, plate are incubated at room temperature in the dark for 90 minutes. Reaction are stopped by vacuum filtration onto 0.3% polyethyleneimine soaked filter mats using Filtermate harvester. Scintilation cocktail is then melted onto microwave-dried filters on a hot plate and the radio activity is counted in Microbia counter.
In assay [4] the target is Translocator protein (Homo sapiens) (UniProt P30536).
Description: PDSP Primary Binding target: TSPO - Compounds are tested at 10 uM concentration, plate are incubated at room temperature in the dark for 90 minutes. Reaction are stopped by vacuum filtration onto 0.3% polyethyleneimine soaked filter mats using Filtermate harvester. Scintilation cocktail is then melted onto microwave-dried filters on a hot plate and the radio activity is counted in Microbia counter.
In assay [5] the target is T1, Muscarinic acetylcholine receptor M2 (Homo sapiens) (UniProt P08172).
T1 sequence (whole entry): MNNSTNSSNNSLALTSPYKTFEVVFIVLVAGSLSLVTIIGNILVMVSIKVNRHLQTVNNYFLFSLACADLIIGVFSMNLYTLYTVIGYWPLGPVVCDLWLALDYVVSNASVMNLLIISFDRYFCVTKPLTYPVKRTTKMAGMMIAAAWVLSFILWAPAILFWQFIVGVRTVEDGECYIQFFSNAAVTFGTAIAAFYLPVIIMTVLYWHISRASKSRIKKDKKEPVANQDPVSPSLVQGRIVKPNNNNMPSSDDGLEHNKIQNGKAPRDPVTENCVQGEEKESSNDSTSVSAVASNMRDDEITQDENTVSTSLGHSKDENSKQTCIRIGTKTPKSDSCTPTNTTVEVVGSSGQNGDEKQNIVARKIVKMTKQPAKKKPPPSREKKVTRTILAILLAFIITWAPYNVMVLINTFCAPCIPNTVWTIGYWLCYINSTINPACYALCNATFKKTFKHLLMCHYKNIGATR
Description: PDSP Primary Binding target: CHRM2 - Compounds are tested at 10 uM concentration, plate are incubated at room temperature in the dark for 90 minutes. Reaction are stopped by vacuum filtration onto 0.3% polyethyleneimine soaked filter mats using Filtermate harvester. Scintilation cocktail is then melted onto microwave-dried filters on a hot plate and the radio activity is counted in Microbia counter.

In assay [6] the target is T2, Alpha-1A adrenergic receptor (Homo sapiens) (UniProt P35348).
T2 sequence (whole entry): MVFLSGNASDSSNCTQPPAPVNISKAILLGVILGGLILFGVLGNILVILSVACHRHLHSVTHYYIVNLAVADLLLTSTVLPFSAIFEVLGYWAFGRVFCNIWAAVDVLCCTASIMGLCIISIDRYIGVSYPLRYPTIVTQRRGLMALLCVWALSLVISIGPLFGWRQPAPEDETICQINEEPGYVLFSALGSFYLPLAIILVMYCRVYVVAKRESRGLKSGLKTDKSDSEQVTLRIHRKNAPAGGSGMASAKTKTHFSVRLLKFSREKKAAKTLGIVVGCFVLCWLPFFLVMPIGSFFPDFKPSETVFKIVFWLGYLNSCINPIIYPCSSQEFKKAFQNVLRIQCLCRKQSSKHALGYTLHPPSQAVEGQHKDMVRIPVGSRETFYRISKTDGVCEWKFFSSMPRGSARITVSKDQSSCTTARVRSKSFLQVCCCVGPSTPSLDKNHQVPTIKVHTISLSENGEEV
Description: PDSP Primary Binding target: ADRA1A - Compounds are tested at 10 uM concentration, plate are incubated at room temperature in the dark for 90 minutes. Reaction are stopped by vacuum filtration onto 0.3% polyethyleneimine soaked filter mats using Filtermate harvester. Scintilation cocktail is then melted onto microwave-dried filters on a hot plate and the radio activity is counted in Microbia counter.

The target of assay [7] is Sigma non-opioid intracellular receptor 1 (Homo sapiens) (UniProt Q99720).
Description: PDSP Primary Binding target: SIGMAR1 - Compounds are tested at 10 uM concentration, plate are incubated at room temperature in the dark for 90 minutes. Reaction are stopped by vacuum filtration onto 0.3% polyethyleneimine soaked filter mats using Filtermate harvester. Scintilation cocktail is then melted onto microwave-dried filters on a hot plate and the radio activity is counted in Microbia counter.
In assay [8] the target is Beta-1 adrenergic receptor (Homo sapiens) (UniProt P08588).
Description: PDSP Primary Binding target: ADRB1 - Compounds are tested at 10 uM concentration, plate are incubated at room temperature in the dark for 90 minutes. Reaction are stopped by vacuum filtration onto 0.3% polyethyleneimine soaked filter mats using Filtermate harvester. Scintilation cocktail is then melted onto microwave-dried filters on a hot plate and the radio activity is counted in Microbia counter.
The target in assay [9] is Histamine H3 receptor (Homo sapiens) (UniProt Q9Y5N1).
Description: PDSP Primary Binding target: HRH3 - Compounds are tested at 10 uM concentration, plate are incubated at room temperature in the dark for 90 minutes. Reaction are stopped by vacuum filtration onto 0.3% polyethyleneimine soaked filter mats using Filtermate harvester. Scintilation cocktail is then melted onto microwave-dried filters on a hot plate and the radio activity is counted in Microbia counter.
Assay [10] has as its target Sodium-dependent serotonin transporter (Homo sapiens) (UniProt P31645).
Description: PDSP Primary Binding target: SLC6A4 - Compounds are tested at 10 uM concentration, plate are incubated at room temperature in the dark for 90 minutes. Reaction are stopped by vacuum filtration onto 0.3% polyethyleneimine soaked filter mats using Filtermate harvester. Scintilation cocktail is then melted onto microwave-dried filters on a hot plate and the radio activity is counted in Microbia counter.
Assay [11] addresses 5-hydroxytryptamine receptor 1B (Homo sapiens) (UniProt P28222).
Description: PDSP Primary Binding target: HTR1B - Compounds are tested at 10 uM concentration, plate are incubated at room temperature in the dark for 90 minutes. Reaction are stopped by vacuum filtration onto 0.3% polyethyleneimine soaked filter mats using Filtermate harvester. Scintilation cocktail is then melted onto microwave-dried filters on a hot plate and the radio activity is counted in Microbia counter.
Assay [12] deals with D(1B) dopamine receptor (Homo sapiens) (UniProt P21918).
Description: PDSP Primary Binding target: DRD5 - Compounds are tested at 10 uM concentration, plate are incubated at room temperature in the dark for 90 minutes. Reaction are stopped by vacuum filtration onto 0.3% polyethyleneimine soaked filter mats using Filtermate harvester. Scintilation cocktail is then melted onto microwave-dried filters on a hot plate and the radio activity is counted in Microbia counter.
Assay [13] has as its target 5-hydroxytryptamine receptor 1E (Homo sapiens) (UniProt P28566).
Description: PDSP Primary Binding target: HTR1E - Compounds are tested at 10 uM concentration, plate are incubated at room temperature in the dark for 90 minutes. Reaction are stopped by vacuum filtration onto 0.3% polyethyleneimine soaked filter mats using Filtermate harvester. Scintilation cocktail is then melted onto microwave-dried filters on a hot plate and the radio activity is counted in Microbia counter.
Assay [14] deals with D(2) dopamine receptor (Homo sapiens) (UniProt P14416).
Description: PDSP Primary Binding target: DRD2 - Compounds are tested at 10 uM concentration, plate are incubated at room temperature in the dark for 90 minutes. Reaction are stopped by vacuum filtration onto 0.3% polyethyleneimine soaked filter mats using Filtermate harvester. Scintilation cocktail is then melted onto microwave-dried filters on a hot plate and the radio activity is counted in Microbia counter.
The target in assay [15] is T3, Alpha-2C adrenergic receptor (Homo sapiens) (UniProt P18825).
T3 sequence (whole entry): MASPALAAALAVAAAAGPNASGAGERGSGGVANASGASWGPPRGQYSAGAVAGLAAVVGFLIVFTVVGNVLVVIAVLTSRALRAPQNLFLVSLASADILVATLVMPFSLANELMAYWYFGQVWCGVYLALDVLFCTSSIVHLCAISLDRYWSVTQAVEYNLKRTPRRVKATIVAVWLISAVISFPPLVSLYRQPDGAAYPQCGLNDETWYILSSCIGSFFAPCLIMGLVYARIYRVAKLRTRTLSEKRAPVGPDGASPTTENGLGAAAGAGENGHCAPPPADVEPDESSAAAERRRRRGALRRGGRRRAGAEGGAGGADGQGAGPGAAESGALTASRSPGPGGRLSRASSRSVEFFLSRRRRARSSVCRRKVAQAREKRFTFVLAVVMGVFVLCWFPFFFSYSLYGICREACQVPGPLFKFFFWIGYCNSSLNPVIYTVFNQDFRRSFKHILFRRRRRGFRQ
Description: PDSP Primary Binding target: ADRA2C - Compounds are tested at 10 uM concentration, plate are incubated at room temperature in the dark for 90 minutes. Reaction are stopped by vacuum filtration onto 0.3% polyethyleneimine soaked filter mats using Filtermate harvester. Scintilation cocktail is then melted onto microwave-dried filters on a hot plate and the radio activity is counted in Microbia counter.

Assay [16] addresses Sigma intracellular receptor 2 (Homo sapiens) (UniProt Q5BJF2).
Description: PDSP Primary Binding target: TMEM97 - Compounds are tested at 10 uM concentration, plate are incubated at room temperature in the dark for 90 minutes. Reaction are stopped by vacuum filtration onto 0.3% polyethyleneimine soaked filter mats using Filtermate harvester. Scintilation cocktail is then melted onto microwave-dried filters on a hot plate and the radio activity is counted in Microbia counter.
Assay [17] addresses 5-hydroxytryptamine receptor 2A (Homo sapiens) (UniProt P28223).
Description: PDSP Primary Binding target: HTR2A - Compounds are tested at 10 uM concentration, plate are incubated at room temperature in the dark for 90 minutes. Reaction are stopped by vacuum filtration onto 0.3% polyethyleneimine soaked filter mats using Filtermate harvester. Scintilation cocktail is then melted onto microwave-dried filters on a hot plate and the radio activity is counted in Microbia counter.
Assay [18] has as its target T4, 5-hydroxytryptamine receptor 3A (Homo sapiens) (UniProt P46098).
T4 sequence (whole entry): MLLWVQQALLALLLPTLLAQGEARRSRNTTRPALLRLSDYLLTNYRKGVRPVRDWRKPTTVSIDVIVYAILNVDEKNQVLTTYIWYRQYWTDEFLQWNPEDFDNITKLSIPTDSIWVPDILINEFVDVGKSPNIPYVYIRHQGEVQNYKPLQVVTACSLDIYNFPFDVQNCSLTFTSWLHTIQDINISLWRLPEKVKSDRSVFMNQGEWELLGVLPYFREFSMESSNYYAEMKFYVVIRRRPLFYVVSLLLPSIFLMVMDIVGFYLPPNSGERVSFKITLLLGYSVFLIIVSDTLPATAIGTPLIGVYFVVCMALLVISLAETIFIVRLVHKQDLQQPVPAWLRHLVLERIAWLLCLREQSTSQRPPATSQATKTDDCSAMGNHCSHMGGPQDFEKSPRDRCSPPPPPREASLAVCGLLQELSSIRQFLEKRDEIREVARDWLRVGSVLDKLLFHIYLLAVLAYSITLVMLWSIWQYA
Description: PDSP Primary Binding target: HTR3A - Compounds are tested at 10 uM concentration, plate are incubated at room temperature in the dark for 90 minutes. Reaction are stopped by vacuum filtration onto 0.3% polyethyleneimine soaked filter mats using Filtermate harvester. Scintilation cocktail is then melted onto microwave-dried filters on a hot plate and the radio activity is counted in Microbia counter.

Assay [19] deals with D(1A) dopamine receptor (Homo sapiens) (UniProt P21728).
Description: PDSP Primary Binding target: DRD1 - Compounds are tested at 10 uM concentration, plate are incubated at room temperature in the dark for 90 minutes. Reaction are stopped by vacuum filtration onto 0.3% polyethyleneimine soaked filter mats using Filtermate harvester. Scintilation cocktail is then melted onto microwave-dried filters on a hot plate and the radio activity is counted in Microbia counter.
Assay [20] deals with 5-hydroxytryptamine receptor 7 (Homo sapiens) (UniProt P34969).
Description: PDSP Primary Binding target: HTR7 - Compounds are tested at 10 uM concentration, plate are incubated at room temperature in the dark for 90 minutes. Reaction are stopped by vacuum filtration onto 0.3% polyethyleneimine soaked filter mats using Filtermate harvester. Scintilation cocktail is then melted onto microwave-dried filters on a hot plate and the radio activity is counted in Microbia counter.

Chain of D(2) dopamine receptor (Homo sapiens) (P14416 whole entry): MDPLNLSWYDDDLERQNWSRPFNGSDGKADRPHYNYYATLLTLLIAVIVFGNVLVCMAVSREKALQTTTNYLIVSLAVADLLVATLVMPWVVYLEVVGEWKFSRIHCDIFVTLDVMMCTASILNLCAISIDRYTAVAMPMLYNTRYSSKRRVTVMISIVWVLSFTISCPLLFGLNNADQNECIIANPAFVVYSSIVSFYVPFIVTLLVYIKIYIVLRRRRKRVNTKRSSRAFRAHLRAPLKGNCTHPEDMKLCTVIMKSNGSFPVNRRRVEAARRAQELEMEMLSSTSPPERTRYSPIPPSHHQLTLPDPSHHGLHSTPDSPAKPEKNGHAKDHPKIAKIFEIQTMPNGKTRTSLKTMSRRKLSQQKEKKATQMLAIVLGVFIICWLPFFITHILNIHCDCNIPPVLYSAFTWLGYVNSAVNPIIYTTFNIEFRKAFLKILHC
Chain of Sigma intracellular receptor 2 (Homo sapiens) (Q5BJF2 whole entry): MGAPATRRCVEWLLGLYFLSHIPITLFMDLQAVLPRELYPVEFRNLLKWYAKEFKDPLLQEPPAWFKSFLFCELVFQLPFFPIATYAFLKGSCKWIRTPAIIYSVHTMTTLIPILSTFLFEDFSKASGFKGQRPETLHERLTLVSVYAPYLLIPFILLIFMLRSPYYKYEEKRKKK
Chain of D(1A) dopamine receptor (Homo sapiens) (P21728 whole entry): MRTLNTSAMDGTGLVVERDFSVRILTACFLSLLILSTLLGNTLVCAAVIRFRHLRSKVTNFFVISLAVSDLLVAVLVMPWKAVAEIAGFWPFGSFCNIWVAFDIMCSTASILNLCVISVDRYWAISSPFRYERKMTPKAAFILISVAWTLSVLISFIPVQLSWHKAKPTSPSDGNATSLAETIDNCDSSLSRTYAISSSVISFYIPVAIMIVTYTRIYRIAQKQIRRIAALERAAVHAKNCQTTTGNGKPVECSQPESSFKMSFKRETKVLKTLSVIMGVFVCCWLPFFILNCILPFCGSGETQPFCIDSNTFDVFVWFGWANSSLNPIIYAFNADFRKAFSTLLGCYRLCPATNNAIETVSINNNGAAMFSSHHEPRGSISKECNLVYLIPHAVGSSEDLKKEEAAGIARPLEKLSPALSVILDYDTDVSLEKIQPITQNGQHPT
Chain of Sigma non-opioid intracellular receptor 1 (Homo sapiens) (Q99720 whole entry): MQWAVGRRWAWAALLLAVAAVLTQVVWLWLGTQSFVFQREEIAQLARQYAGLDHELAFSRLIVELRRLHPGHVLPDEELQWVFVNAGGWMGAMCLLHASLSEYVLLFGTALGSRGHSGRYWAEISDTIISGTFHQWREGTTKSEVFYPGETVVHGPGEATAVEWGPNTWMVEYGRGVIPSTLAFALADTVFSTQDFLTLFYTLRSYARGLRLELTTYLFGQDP
Chain of Beta-1 adrenergic receptor (Homo sapiens) (P08588 whole entry, looked up): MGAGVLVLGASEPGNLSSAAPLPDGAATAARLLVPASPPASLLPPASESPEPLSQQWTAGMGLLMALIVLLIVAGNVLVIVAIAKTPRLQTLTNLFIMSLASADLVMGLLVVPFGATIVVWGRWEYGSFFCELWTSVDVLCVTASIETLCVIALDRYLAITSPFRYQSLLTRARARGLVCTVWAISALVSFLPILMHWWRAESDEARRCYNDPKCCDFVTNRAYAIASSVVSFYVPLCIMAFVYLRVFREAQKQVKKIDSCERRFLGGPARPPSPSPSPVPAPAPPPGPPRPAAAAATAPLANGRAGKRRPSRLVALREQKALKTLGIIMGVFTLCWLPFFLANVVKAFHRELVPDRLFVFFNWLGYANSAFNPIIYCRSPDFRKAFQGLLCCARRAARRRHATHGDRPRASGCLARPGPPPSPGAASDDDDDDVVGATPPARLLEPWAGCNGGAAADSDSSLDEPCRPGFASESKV
Chain of 5-hydroxytryptamine receptor 1E (Homo sapiens) (P28566 whole entry): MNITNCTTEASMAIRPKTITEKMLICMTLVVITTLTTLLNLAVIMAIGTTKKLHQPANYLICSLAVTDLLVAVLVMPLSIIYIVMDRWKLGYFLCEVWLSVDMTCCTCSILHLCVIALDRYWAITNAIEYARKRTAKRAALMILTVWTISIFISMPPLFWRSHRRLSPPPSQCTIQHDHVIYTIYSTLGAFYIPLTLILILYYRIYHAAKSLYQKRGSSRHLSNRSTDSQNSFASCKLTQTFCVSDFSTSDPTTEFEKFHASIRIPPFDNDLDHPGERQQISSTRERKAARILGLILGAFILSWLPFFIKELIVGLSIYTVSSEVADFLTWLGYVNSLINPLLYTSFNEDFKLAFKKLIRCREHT
Chain of Sodium-dependent serotonin transporter (Homo sapiens) (P31645 whole entry, looked up): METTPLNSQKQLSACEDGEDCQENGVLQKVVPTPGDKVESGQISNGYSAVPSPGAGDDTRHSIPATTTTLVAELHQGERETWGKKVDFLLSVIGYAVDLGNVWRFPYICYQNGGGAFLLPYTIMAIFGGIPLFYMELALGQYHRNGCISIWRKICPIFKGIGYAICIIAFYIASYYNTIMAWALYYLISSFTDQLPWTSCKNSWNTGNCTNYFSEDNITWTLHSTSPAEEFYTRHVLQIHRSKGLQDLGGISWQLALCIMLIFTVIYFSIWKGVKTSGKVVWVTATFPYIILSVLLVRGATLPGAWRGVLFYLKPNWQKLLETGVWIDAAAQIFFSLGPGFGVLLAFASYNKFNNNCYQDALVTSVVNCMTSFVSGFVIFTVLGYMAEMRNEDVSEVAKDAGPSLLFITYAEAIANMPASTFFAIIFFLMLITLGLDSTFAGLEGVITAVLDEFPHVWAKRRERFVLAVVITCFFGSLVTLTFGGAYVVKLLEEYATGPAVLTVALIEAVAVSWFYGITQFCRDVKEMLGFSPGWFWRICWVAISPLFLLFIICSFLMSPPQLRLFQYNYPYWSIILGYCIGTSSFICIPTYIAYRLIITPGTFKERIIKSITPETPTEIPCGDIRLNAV
Chain of 5-hydroxytryptamine receptor 2A (Homo sapiens) (P28223 whole entry): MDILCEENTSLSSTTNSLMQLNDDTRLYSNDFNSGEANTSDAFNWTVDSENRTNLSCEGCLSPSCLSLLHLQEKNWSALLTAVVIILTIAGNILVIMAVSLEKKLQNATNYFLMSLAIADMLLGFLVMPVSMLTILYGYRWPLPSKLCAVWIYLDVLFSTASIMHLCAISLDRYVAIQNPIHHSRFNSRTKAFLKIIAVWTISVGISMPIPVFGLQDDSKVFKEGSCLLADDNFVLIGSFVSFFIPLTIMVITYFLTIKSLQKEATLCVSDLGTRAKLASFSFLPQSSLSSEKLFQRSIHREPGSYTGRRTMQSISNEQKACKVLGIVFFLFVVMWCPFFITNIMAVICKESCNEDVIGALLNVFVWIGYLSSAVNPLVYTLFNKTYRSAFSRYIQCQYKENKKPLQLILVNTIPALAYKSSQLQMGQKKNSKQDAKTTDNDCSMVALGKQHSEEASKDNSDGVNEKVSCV
Chain of Kappa-type opioid receptor (Homo sapiens) (P41145 whole entry): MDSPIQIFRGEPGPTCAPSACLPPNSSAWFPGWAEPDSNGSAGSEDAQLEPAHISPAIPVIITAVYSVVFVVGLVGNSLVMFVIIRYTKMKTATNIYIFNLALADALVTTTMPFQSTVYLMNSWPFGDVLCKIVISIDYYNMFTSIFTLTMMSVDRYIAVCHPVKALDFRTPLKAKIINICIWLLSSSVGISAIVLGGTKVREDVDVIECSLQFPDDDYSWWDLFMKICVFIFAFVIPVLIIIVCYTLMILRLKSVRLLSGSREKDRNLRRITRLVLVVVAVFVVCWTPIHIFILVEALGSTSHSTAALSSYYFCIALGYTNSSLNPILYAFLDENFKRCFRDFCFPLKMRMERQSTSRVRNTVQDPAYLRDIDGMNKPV
Chain of D(1B) dopamine receptor (Homo sapiens) (P21918 whole entry): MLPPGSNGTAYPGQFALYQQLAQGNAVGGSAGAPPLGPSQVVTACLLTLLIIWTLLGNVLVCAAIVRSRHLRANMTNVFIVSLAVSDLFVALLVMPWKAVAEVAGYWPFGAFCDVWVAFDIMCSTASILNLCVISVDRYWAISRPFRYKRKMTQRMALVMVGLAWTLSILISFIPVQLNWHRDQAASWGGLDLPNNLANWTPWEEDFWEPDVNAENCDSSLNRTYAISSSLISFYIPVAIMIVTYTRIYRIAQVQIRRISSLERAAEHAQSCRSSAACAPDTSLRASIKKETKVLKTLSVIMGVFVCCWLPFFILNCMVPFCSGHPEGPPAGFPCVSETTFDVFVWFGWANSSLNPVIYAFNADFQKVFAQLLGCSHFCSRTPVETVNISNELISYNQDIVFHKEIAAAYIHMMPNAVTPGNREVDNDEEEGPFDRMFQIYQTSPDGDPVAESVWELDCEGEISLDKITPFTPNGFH
Chain of Delta-type opioid receptor (Homo sapiens) (P41143 whole entry): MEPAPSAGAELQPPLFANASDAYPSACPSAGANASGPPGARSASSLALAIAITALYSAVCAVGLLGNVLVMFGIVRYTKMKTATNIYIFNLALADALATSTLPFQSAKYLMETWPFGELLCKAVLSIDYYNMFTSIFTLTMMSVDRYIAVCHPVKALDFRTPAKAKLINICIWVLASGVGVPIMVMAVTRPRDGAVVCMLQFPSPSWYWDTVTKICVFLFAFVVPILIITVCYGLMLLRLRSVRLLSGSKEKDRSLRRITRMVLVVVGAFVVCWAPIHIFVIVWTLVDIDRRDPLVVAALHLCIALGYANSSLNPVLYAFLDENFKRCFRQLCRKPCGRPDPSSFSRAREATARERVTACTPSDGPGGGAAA
Chain of Histamine H3 receptor (Homo sapiens) (Q9Y5N1 whole entry): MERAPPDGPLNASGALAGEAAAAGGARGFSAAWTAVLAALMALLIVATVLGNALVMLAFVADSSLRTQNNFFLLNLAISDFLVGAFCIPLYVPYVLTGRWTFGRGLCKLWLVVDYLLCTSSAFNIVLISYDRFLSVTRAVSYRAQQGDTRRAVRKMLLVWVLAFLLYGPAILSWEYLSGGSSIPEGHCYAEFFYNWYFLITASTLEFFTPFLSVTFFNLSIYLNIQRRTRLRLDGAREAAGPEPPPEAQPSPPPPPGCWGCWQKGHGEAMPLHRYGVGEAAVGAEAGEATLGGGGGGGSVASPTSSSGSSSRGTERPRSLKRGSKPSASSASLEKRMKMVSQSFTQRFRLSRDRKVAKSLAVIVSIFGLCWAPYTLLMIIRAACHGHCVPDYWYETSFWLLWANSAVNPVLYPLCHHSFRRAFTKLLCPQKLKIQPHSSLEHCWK

Turning to `COc1ccc(CNC(=O)c2cc(-c3cncc(Cl)c3)cnc2-c2ccccn2)nc1OC`, the inhibition in [1] is 14.4%; in assay [2] it was -4.67%; in assay [3] it was 23.7%; in [4], 17.5%; in assay [5] it was 10.6%; in assay [6], 0.56%. Further, the inhibition is -2.32% in assay [7]; 30.3% in [8]; -2.53% in assay [9]; 23.7% in [10]; -4.47% in assay [11]; 1.18% in assay [12]. For the same compound, the inhibition in [13] is 12.9%; in [14], 17.4%; in [15] it was 7.09%; in [16], 16.4%; in [17], 88.7%.

With `CO[C@@H]1COCC[C@@H]1N[C@@H]1CC[C@@](C(=O)N2CCc3ncc(C(F)(F)F)cc3C2)(C(C)C)C1`, the inhibition in assay [1] was 3.16%; in assay [2], -2.34%; in [3], 25.9%; in assay [4] it was 11.4%; in assay [5], 8.25%; in assay [6], -0.61%. Moreover, the inhibition in assay [7] was 81.8%; in [8], 28.2%; in [9] it was 4.46%; in assay [10], -2.04%; in [11], -6.23%; in [12], 0.19%. For the same compound, the inhibition in assay [13] is 9.5%; in assay [14], 16.4%; in [15], 3.2%; in assay [16], 67.9%; in [17], 4.71%.

Regarding `Cc1ccc(O)c([C@H](CCN(C(C)C)C(C)C)c2ccccc2)c1`, the inhibition was -8.98% in assay [2]; 31% in assay [3]; -0.33% in [18]; 13.8% in assay [4]; -4.98% in assay [19]; 97.6% in assay [5]. Besides, the inhibition is 0.77% in assay [6]; 90.9% in [7]; -3.65% in assay [8]; 4.65% in assay [9]; 20.8% in [10]; 25.3% in [11]. Further, the inhibition in [14] was 42.6%; in assay [15], 14.9%; in assay [16], 96.9%; in assay [17], 11.4%.

With `N#Cc1ccc(NC(=O)Nc2ccccc2Br)c2nn[nH]c12`, the inhibition in assay [2] is 16.4%; in assay [3] it was 25.6%; in assay [18] it was 4.92%; in [4] it was 53.9%; in assay [19], 2.97%; in assay [5], 29.7%. Also, the inhibition in [7] was 9.64%; in assay [8], 26.6%; in [9], 3.06%; in assay [10] it was 26.5%; in [11], 1.05%; in [12], -7.18%. Further, the inhibition in assay [13] is 4.87%; in [14] it was -0.4%; in assay [15] it was 4.08%; in assay [17], -5.61%.

`c1cc(CN2CCCNCCNCCCNCC2)ccc1CN1CCCNCCNCCCNCC1`: the inhibition in [2] is -4.5%; in assay [3], 13.8%; in assay [18], 21.9%; in assay [4] it was 7.76%; in assay [5] it was 67.7%; in assay [6] it was -9.28%. For the same compound, the inhibition is 15.3% in assay [7]; 34.9% in assay [8]; 80.5% in [9]; 22.7% in assay [10]; 4.06% in assay [11]; -5.65% in assay [12]. Also, the inhibition in [13] was 33.9%; in assay [14] it was -1.67%; in assay [15] it was 66.3%; in assay [16], 22.5%; in [17], 0.83%.

With `FC(F)(F)c1c(N2CCC(c3ccccc3)CC2)ccn2c(CC3CC3)nnc12`, the inhibition is -9.81% in [1]; 10.5% in assay [3]; 36.9% in [4]; 7.85% in [5]; -6.36% in assay [6]; 64.7% in assay [7]. For the same compound, the inhibition in assay [8] is 22.1%; in [10] it was 42.4%; in [11], -8.94%; in [12], -0.45%; in assay [13] it was 21.9%; in assay [14], 26%. The results for the inhibition in [15], in assay [16] and in assay [17] were 1.28%, 22.9% and 44.4%, respectively.

`C[N+]1(C)[C@@H]2C[C@@H](OC(=O)C(O)(c3cccs3)c3cccs3)C[C@H]1[C@@H]1O[C@@H]12`: the inhibition in [1] was -5.82%; in assay [2], -1.59%; in assay [3], -0.32%; in assay [20], -5.44%; in assay [18], 14.3%; in assay [4], 66.3%. Moreover, the inhibition is 94.2% in assay [5]; 3.89% in [6]; 32.7% in [7]; 7.61% in assay [8]; 30% in assay [10]; 14.9% in assay [11]. Also, the inhibition in [13] was 11.2%; in assay [14], 15.2%; in [15], -0.27%; in [16] it was 66.5%; in assay [17] it was -4.76%.

In the case of `O=C(O)C1CN(Cc2ccc(-c3nc4cc(Cc5ccccc5F)ccc4s3)c(F)c2)C1`, the inhibition in assay [1] was 8.45%; in [2] it was -3.98%; in [3], 0.93%; in assay [18], -3.55%; in assay [4] it was 22.3%; in [19], 2.63%. Also, the inhibition in assay [5] is -8.59%; in assay [6] it was -8.12%; in [7], 5.12%; in [8] it was 22.9%; in assay [9], 1.61%; in assay [10] it was -1.28%. Further, the inhibition is -0.27% in [12]; 31.1% in [13]; 20.6% in assay [15]; 19.1% in assay [16]; 9.17% in assay [17].
